5 compounds from ChEMBL document CHEMBL1151019, “Kinetics of thermal [1,7a]-sigmatropic shift of hexafluoro vitamin D3 and vitamin D3 derivatives. Evaluation of conformations of the A ring affected by 1-OH and 3-OH groups” (Bioorg Med Chem Lett, 1996) can be followed below.

The structures appear in SMILES notation.

A short description of the assay: Kinetic constant for the transformation of vitamin D to Previtamin D (kl / k-1).

The compound `C=C1/C(=C\C=C2/CCC[C@]3(C)C([C@H](C)CCCC(O)(C(F)(F)F)C(F)(F)F)CC[C@@H]23)C[C@@H](O)C[C@@H]1O` (stereo not given in full) displayed a Keq of 5.1.

As to `C=C1/C(=C\C=C2/CCC[C@]3(C)[C@@H]([C@H](C)CCCC(C)C)CC[C@@H]23)C[C@@H](O)C[C@@H]1O`, the Keq is 5.18.

`C=C1CCCC/C1=C/C=C1\CCC[C@]2(C)C([C@H](C)CCCC(C)C)CC[C@@H]12` (stereo not given in full) had a Keq of 3.06.

`C=C1/C(=C\C=C2/CCC[C@]3(C)C([C@H](C)C[C@H](O)CC(O)(C(F)(F)F)C(F)(F)F)CC[C@@H]23)C[C@@H](O)C[C@@H]1O` (stereo not given in full) showed a Keq of 5.46.

The compound `C=C1CC[C@H](O)C/C1=C/C=C1\CCC[C@]2(C)[C@@H]([C@H](C)CCCC(C)C)CC[C@@H]12` came in with a Keq of 3.71.
